The values that follow are results of earlier work, collected in patent US20120101005A1, “METHODS FOR PREDICTING THE TOXICITY OF A CHEMICAL” (GE HEALTHCARE UK LIMITED, priority 2009, published 2012).

The structures appear in SMILES notation. Read-outs that look alike come from different tables or passages of the source.

The test system of data set [1] is C3H10T1/2 mesenchymal stem cells. Conditions: induced with 200 nM insulin, 1 μM BRL49653 and LGD1069; lipogenesis, oil red O-staining, AP2 and LPL expression.
The subject of data set [2] is 3T3-F442A, 3T3-L1, Ob1771 and embryonic stem cells.
Data set [3] has as its system human embryonic stem cells.
Another data set concerns rat PC12 cells. As to conditions: for NGF-induced neuronal differentiation of PC12 cells: monitored by generation of neurite processes.
Data set [4] relates to p140 trk tyrosine kinase NGF-receptor. Conditions: compound interacts with NGF.
The test system of data set [5] is common neurotrophin receptor p75NTR. As to conditions: compound interacts with NGF.
The target in data set [6] is p140 trk tyrosine kinase NGF-receptor (Rattus norvegicus, UniProt P35739). Conditions: read-out: IC50, p140 trk NGF-receptor autophosphorylation.
p140 trk tyrosine kinase NGF-receptor (Rattus norvegicus, UniProt P35739), sequence (P35739 33-799): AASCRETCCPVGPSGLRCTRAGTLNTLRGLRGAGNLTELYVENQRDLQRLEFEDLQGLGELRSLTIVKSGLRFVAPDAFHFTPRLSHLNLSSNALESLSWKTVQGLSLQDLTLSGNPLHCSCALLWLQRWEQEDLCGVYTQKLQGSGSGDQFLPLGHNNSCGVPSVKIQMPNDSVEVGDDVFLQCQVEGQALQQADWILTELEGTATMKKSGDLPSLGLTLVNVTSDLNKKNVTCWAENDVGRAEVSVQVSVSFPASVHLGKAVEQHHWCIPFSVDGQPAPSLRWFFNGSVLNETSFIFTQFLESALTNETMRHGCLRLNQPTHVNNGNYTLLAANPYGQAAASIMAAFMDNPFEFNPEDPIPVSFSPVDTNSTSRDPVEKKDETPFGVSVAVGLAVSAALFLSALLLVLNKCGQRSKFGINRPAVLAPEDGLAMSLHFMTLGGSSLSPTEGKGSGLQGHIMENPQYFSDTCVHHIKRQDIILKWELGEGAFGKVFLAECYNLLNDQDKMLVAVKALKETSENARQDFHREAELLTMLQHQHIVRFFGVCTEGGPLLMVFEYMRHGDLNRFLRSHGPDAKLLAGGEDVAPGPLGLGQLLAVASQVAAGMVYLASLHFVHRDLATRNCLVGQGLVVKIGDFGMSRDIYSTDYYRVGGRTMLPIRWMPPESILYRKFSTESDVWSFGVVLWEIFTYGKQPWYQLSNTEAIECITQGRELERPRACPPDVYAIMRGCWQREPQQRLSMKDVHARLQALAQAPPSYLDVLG
In the next data set the target is EGF receptor (Homo sapiens, UniProt P00533).
EGF receptor, sequence (P00533 25-1210): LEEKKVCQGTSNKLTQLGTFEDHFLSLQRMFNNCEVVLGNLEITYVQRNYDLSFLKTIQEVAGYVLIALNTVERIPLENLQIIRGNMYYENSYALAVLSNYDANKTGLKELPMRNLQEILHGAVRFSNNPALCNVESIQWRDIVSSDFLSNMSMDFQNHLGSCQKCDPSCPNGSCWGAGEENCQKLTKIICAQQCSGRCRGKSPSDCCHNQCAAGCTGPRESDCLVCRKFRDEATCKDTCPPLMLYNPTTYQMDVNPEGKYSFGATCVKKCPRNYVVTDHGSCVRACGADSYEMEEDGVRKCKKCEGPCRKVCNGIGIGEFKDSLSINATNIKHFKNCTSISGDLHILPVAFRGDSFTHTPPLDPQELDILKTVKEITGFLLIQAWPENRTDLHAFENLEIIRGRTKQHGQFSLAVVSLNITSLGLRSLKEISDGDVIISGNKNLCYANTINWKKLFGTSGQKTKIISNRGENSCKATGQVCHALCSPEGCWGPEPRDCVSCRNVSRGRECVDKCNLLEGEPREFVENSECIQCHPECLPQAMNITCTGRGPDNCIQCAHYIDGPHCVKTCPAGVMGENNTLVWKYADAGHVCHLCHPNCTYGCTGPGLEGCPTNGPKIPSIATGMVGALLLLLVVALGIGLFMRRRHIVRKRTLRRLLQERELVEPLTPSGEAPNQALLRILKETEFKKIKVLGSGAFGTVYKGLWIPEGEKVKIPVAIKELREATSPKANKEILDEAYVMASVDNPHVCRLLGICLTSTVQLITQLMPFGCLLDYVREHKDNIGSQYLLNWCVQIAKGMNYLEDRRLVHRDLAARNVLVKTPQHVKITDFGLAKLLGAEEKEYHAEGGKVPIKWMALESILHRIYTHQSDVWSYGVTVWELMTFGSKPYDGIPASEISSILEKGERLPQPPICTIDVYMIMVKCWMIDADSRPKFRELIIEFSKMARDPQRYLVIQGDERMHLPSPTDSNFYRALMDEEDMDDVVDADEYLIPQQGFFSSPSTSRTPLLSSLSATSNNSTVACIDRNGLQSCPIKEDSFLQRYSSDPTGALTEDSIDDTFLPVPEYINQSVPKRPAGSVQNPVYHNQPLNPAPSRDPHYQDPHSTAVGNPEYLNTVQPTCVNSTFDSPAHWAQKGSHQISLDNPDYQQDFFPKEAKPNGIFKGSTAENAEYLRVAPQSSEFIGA
For data set [7], the system named is ES cells. Conditions: co-treatment with retinoic acid.
Data set [8] concerns ES cells.
The mark [9] stands for this setting: 1 μM on the first day of the differentiation process.

For `CC(C)(C)NC(=O)[C@@H]1C[C@@H]2CCCC[C@@H]2CN1C[C@@H](O)[C@H](Cc1ccccc1)NC(=O)[C@H](CC(N)=O)NC(=O)c1ccc2ccccc2n1` [saquinavir], the “adipocyte differentiation of mesenchymal stem cells” value in data set [1] is listed as “reduced the adipocyte differentiation”. Further, the “adipocyte differentiation, by cell model” value in [2] was “inhibited the differentiation of only 3T3-L1 and 3T3-F442A cells”.
Regarding `Nc1ncnc2c1ncn2C(C=O)OC(C=O)CO` (centres unmarked) [AdOx, Adenosine dialdehyde], in the data set on P19 EC cells (setting [9]), the “expression levels of the neuronal markers β-tubulin, NeuroD1 and mash1” value is given as “decreased”; the “number of neurites observed” value is “decreased”.
For the compound `Cn1cc(C2=C(c3ccc(Cl)cc3Cl)C(=O)NC2=O)c2ccccc21` [SB216763], in data set [3], the “concentration at which reported as inhibitor of human embryonic stem cell cardiomyocyte differentiation” value is 10 to 25 µM.
As for `C[S+]([O-])c1ccc(-c2nc(-c3ccc(F)cc3)c(-c3ccncc3)[nH]2)cc1` (centres unmarked) [SB 203580, 4-(4″-fluorophenyl)-2-(4″-methylsulfinylphenyl)-5-(4″-pyridyl) imidazole], in the data set with mouse P19 cell (10 μM, cardiac-actin by immuno-histochemistry, cardiac-actin and atrial natriuretic peptide by RT-PCR), the “P19 cell differentiation into cardiomyocytes” value is listed as “prevent mouse P19 cell differentiation into cardiomycocytes”. Besides, in the data set on ERKs, the “effect on the activities of ERKs” value was “no significant effect”. Moreover, the “effect on the activities of JNKs” value in the data set with JNKs was “no significant effect”. Also, the “number of cardiomyocytes from human embryonic stem cells” value in data set [3] (15 μM) is given as “dramatically reduces the number of cardiomyocytes”. Besides, the “cardiomyocyte differentiation of human embryonic stem cells” value in data set [3] (25 μM) was “completely blocked”. Also, the “generation of cardiomyocytes from human embryonic stem cells” value in data set [3] (1-10 μM) is “enhances the generation of cardiomyocytes”.
As for `Cn1c2ccc(NC(=O)c3ccccc3)cc2c(=O)n2nc(C(=O)O)cc12` [PD90780, 7-(Benzolylamino)-4,9-Dihydro-4-Methyl-9-Oxo-Pyrazolo[5,1-b]Quinazoline-2-Carboxlic Acid], the “NGF-induced neuronal differentiation of PC12 cells” value in the data set on rat PC12 cells is listed as “abolishes”. For the same compound, the “binding of NGF to p140 trk tyrosine kinase NGF-receptor” value in [4] is on record as “preventing its binding”. Besides, the “binding of NGF to p75NTR” value in data set [5] was “preventing its binding”.
For the compound `C[C@]12O[C@H](C[C@]1(O)C(=O)O)n1c3ccccc3c3c4c(c5c6ccccc6n2c5c31)CNC4=O` [K-252b], the “NGF-induced neuronal differentiation of PC12 cells” value with rat PC12 cells is recorded as “effective inhibitors”.
Turning to `Cc1cccc(C)c1OCC(=O)N[C@@H](Cc1ccccc1)[C@@H](O)C[C@H](Cc1ccccc1)NC(=O)[C@H](C(C)C)N1CCCNC1=O` [lopinavir], the “adipocyte differentiation, by cell model” value in data set [2] is reported as “inhibited adipocyte differentiation in all cells tested”.
Broadly, the IC50 is the concentration that gives 50% inhibition. Regarding `CC(C)(C)c1cc(/C=C(\C#N)C(N)=S)cc(C(C)(C)C)c1O` [AG-879], in the data set on rat PC12 cells, the “NGF-induced neurite outgrowth in PC12 cells” value is listed as “inhibits NGF-induced neurite outgrowth”. Besides, the half-maximal inhibitory concentration (IC50) in [6] is 10 µM. In addition, the “inhibition of EGF receptor phosphorylation” value on EGF receptor is given as “no inhibition”. For the same compound, the “inhibition of PDGF receptor phosphorylation” value in the data set on PDGF receptor is reported as “no inhibition”.
On to `COC(=O)[C@@]1(O)C[C@H]2O[C@]1(C)n1c3ccccc3c3c4c(c5c6ccccc6n2c5c31)C(=O)NC4` [K-252a], for which the “NGF-induced neuronal differentiation of PC12 cells” value in the data set on rat PC12 cells is listed as “effective inhibitors”.
For the compound `COC(=O)[C@]1(O)C[C@H]2O[C@]1(C)n1c3ccc(O)c(N)c3c3c4c(c5c6ccccc6n2c5c31)C(=O)NC4=O` [Indocarbazostatin D], the “NGF-induced neuronal differentiation of PC12 cells” value in the data set on rat PC12 cells was “inhibitors”.
Consider `COC(=O)[C@]1(O)C[C@H]2O[C@]1(C)n1c3ccc(O)cc3c3c4c(c5c6ccccc6n2c5c31)C(=O)NC4=O` [Indocarbazostatin C], for which, in the data set with rat PC12 cells, the “NGF-induced neuronal differentiation of PC12 cells” value is on record as “inhibitors”.
For `CCCCCCCCCC(=O)N[C@H](CN1CCOCC1)[C@H](O)c1ccccc1` [D-PDMP, D-theo-1-phenyl-2-decanoylamino-3-morphlino-1-propanol], the “death of P19-derived neurons” value with P19 EC cells was “causing the death of P19-derived neurons”. Further, in the data set on P19 EC cells (50 μM), the “cell death of undifferentiated P19 EC cells” value was “without any indication of cell death”. For the same compound, in the data set with P19 EC cells (50 μM, added 3 days prior to retinoic acid and maintained), the “proliferation of the undifferentiated P19 EC cells” value is “reduced”. In addition, the neurite elongation result in the data set with P19 EC cells (50 μM, neurites present but failed to develop correctly) is on record as “abolished neurite elongation”. For the same compound, in the data set on P19 EC cells (P19 EC in-vitro neuronal differentiation model), the neurite outgrowth entry is recorded as “inhibited neurite outgrowth”.
`Cc1c(O)cccc1C(=O)N[C@@H](CSc1ccccc1)[C@H](O)CN1C[C@H]2CCCC[C@H]2C[C@H]1C(=O)NC(C)(C)C` [nelfinavir]: the “adipocyte differentiation of mesenchymal stem cells” value in data set [1] is listed as “reduced the adipocyte differentiation”. In [2], the “adipocyte differentiation, by cell model” value is “inhibited adipocyte differentiation in all cells tested”.
As for `CC(C)(C)NC(=O)[C@@H]1CN(Cc2cccnc2)CCN1C[C@@H](O)C[C@@H](Cc1ccccc1)C(=O)N[C@H]1c2ccccc2C[C@H]1O` [indinavir], in data set [2], the “adipocyte differentiation, by cell model” value was “inhibited the differentiation of only 3T3-L1 and 3T3-F442A cells”.
On to `COc1cccc(-c2cc(=O)c3ccccc3o2)c1N` [PD98059, 2″-Amino-3″-Methoxyflavone], for which the “concentration at which reported as inhibitor of human embryonic stem cell cardiomyocyte differentiation” value in [3] is 5 to 25 µM. In addition, in the data set on rat PC12 cells, the “NGF-induced neurite formation in PC12 cells” value was “completely blocks” and the “cell viability of PC12 cells” value is listed as “without affecting cell viability”. In the data set with ES cells [7], the “adipocyte formation from ES cells” value is recorded as “prevents adipocyte formation” and the “expression of adipogenic markers in ES cells” value is “prevented”. Moreover, the “adipocyte formation from ES cells” value with ES cells [7] (listed as PD68059) is “prevented”. Moreover, the “differentiation of ES cells into neuron or cardiomyocytes” value with ES cells [8] is “no effect”.
As to `CC(C)c1nc(CN(C)C(=O)N[C@H](C(=O)N[C@@H](Cc2ccccc2)C[C@H](O)[C@H](Cc2ccccc2)NC(=O)OCc2cncs2)C(C)C)cs1` [ritonavir], the “adipocyte differentiation of mesenchymal stem cells” value in [1] is “reduced the adipocyte differentiation”. For the same compound, the “adipocyte differentiation, by cell model” value in data set [2] is “inhibited the differentiation of only 3T3-L1 and 3T3-F442A cells”.
On to `Cc1cc(S(C)(=O)=O)c(S(C)(=O)=O)cc1C(=O)NC(=N)N` [EMD87580], for which, in the data set on mouse P19 cell (during DMSO induction), the “cardiomyocyte differentiation of mouse P19 embryonic carcinoma cells” value is given as “inhibit the cardiomyocyte differentiation”.
